# Like-named read-outs stand apart in the source and are kept apart here.
# How the values were obtained:
# [1] = system: human vascular smooth muscle cells (SMCs); experiment: XTT cell proliferation assay, smooth muscle cells; type: cell-based; conditions: for IC50: XTT assay after 72 h, mean of three independent experiments, read-out: IC50, SMC proliferation-inhibitory activity
# Text: Human umbilical vein endothelial cells (HUVECs) were isolated from umbilical cords (kindly donated by the Gynecology and Obstetrics Department, Innsbruck Medical University) by enzymatic detachment using collagenase, as previously described; see Bernhard, FASEB J 17(15), 2302-4 (2003). Human umbilical vein smooth muscle cells (SMCs) were isolated from the same umbilical cords according to Chamley-Campbell, Physiol Rev 59(1), 1-61 (1979). SMCs were routinely passaged in 0.2% gelatine-coated (Sigma, Steinheim, Germany) polystyrene culture flasks (Becton Dickinson, Meylan Cedex, France) in Medium 231 (Cascade Biologics, Paisley, UK). The isolation and analysis of human umbilical cord ECs and SMCs has been approved by the Ethics Committee of the Innsbruck Medical University.
# Cell proliferation was measured by the XTT cell proliferation assay (Biomol, Hamburg, Germany) as described by the manufacturer. The XTT assay is based on the ability of metabolic active cells to reduce the tetrazolium salt XTT to orange coloured compounds of formazan. The dye formed is water soluble and the dye intensity can be read at a given wavelength with a spectrophotometer. The intensity of the dye is proportional to the number of metabolic active cells. In addition to the XTT assay all proliferation-experiments were also evaluated by counting cells in a coulter counter.
# As described above (Example 1) cell proliferation was measured by the XTT cell proliferation assay (Biomol, Hamburg, Germany) as described by the manufacturer. The XTT assay is based on the ability of metabolic active cells to reduce the tetrazolium salt XTT to orange coloured compounds of formazan. The dye formed is water soluble and the dye intensity can be read at a given wavelength with a spectrophotometer. The intensity of the dye is proportional to the number of metabolic active cells.
# [2] = system: SMCs; conditions: associated with upregulation of p21/WAF1; cited from earlier work
# [3] = system: SMCs; conditions: caspase-dependent manner; cited from earlier work
# [4] = system: VCAM-1; conditions: ECs; cited from earlier work
# [5] = system: p27/KIP; experiment: Western blot of p27/KIP in SMCs; type: cell-based, human; conditions: SMCs incubated 24 hours; shift from 27 kD to 58 kD signal
# Protocol: (§1) In order to investigate the effect of leoligin on the cellular level, isolated primary human vascular smooth muscle cells (SMCs) were incubated with the indicated concentrations of leoligin for the indicated times. […] Values shown are mean values from a representative experiment performed in triplicates. […] Values shown are mean values from three independent experiments+/−S.D. The histogram blots in FIG. 3C show the results from a DNA content analysis of control-treated or leoligin-treated SMCs after 24 hours of incubation (upper row, left histogram . . . solvent control; upper row, right histogram . . . leoligin).
# Western blotting was performed as previously described; see Bernhard, Cell Death Differ 8(10), 1014-21 (2001). Primary antibodies used were anti-p27/KIP-1 antibody (clone 57; BD Transduction Laboratories).
# [6] = system: human vascular smooth muscle cells (SMCs); experiment: Cell death by AnnexinV-propidium iodide method and FACS, SMCs; type: cell-based; conditions: after 48 hour
# Protocol: as §1
# (§2) For detection and/or quantification of cell death, forward/sideward light scattering analysis, the AnnexinV-propidium iodide method, and staining of nuclear DNA content (cell cycle analyses) were used as described; see Bernhard FASEB J 13(14), 1991-2001 (1999).
# [7] = system: primary human vascular endothelial cells (ECs); experiment: XTT cell proliferation assay, endothelial cells; type: cell-based
# Text: (§3) Values shown are mean values from a representative experiment performed in triplicates.
# [8] = system: human vascular smooth muscle cells (SMCs); experiment: Nuclear DNA content (cell cycle) analysis, SMCs; type: cell-based; conditions: 24 hours of incubation
# Protocol: In order to investigate the effect of leoligin on the cellular level, isolated primary human vascular smooth muscle cells (SMCs) were incubated with the indicated concentrations of leoligin for the indicated times. […] Values shown are mean values from a representative experiment performed in triplicates.
# as §2
# [9] = system: venous bypass graft intimal hyperplasia; experiment: Mouse model for vein graft disease (vena cava interposed into carotid artery); type: in vivo
# Protocol: Before wound closure after the transplantation, a peradventitial depot of 100 μl of 0.9% NaCl (control) or 100 μl of 100 μM leoligin in 0.9% NaCl were applied. After 4 weeks conduits were removed and subjected to morphometric analyses and to immunohistochemistry. FIG. 5B: the upper two images show a Elastica van Giesson stain of sections of the venous conduits. White arrows indicate neointimal thickness which was analysed by morphometry (see FIG. 5A). Central images display a staining for the endothelial cell CD31/PECAM-1 antigen (brown, black arrows) combined with a hematoxilin stain. […] The abbreviations “Lu” and “Li” stand for the full terms “lumen” and “liver”, respectively.
# In the applied mouse model the vena cava of a donor mouse was interposed into the carotid artery of a recipient mouse. After transplantation and prior to wound closure a 100 μl depot of 0.9% NaCl (control group) or 100 μM leoligin in 0.9% NaCl (leoligin group) was placed around the adventitia of the vein graft in the recipient mouse. 4 weeks after the intervention mice were sacrificed and the interposed venae cavae were harvested for analyses. […] For details on the surgical procedure see Schachner, Eur J Cardiothorac Surg 30(3), 451-63 (2006); Schachner, Heart Surg Forum 9(1), E515-E517 (2006). Animal experiments were approved by the Commission for Animal Testing Affairs of the Austrian Ministry for Science and Research.
# (§4) Following fixation in 4% paraformaldehyde and dehydration of tissues from organ culture and mouse experimentation, tissues were embedded in paraffin (venae cavae from the in vivo experiments were embedded into mouse liver prior to fixation) and sections were prepared. Immunohistochemistry was performed with the Accustain Elastica Stain (HT25) kit (Sigma-Aldrich, USA) or the En Vision+System-HRP (DAB) (DakoCytomation, Denmark) according to the manufacturers instructions. Primary antibodies used were anti-p27/KIP-1 antibody (clone 57; BD Transduction Laboratories), and anti-CD31/PECAM-1 antibody (clone JC70A, Dako Cytomation). Image analyses were performed using the Image J software of the National Institute of Health (USA).
# [10] = system: primary human vascular endothelial cells (ECs); experiment: Metabolic protein labelling with 35S-methionine/cysteine in ECs; type: cell-based
# Protocol: (§5) Primary human vascular endothelial cells (ECs) were incubated with the indicated concentrations of leoligin for the indicated times. […] Values shown are mean values from a representative experiment performed in triplicates. […] Values shown are mean values from three independent experiments+/−S.D. The impact of leoligin on TNFalpha-induced surface expression of VCAM-1, ICAM-1, and E-selectin (E-Sel) is shown in the three diagrams in FIG. 4C. Data shown are mean fluorescence intensities (MFI) of representative experiments. […] After protein preparation, total cellular proteins were separated on polyacrylamide gels, gel were dried and analysed by exposure to x-ray films.
# Metabolic labelling with ^35S-methionine/cysteine was performed as previously described (Bernhard (2001), loc. cit.).
# [11] = system: human saphenous veins; experiment: Human saphenous vein organ culture model of intimal hyperplasia; conditions: added freshly every second day over 2 weeks
# Protocol: as §4
# [12] = system: VCAM-1; experiment: FACS analysis of TNFalpha-induced surface adhesion molecule expression on ECs; type: cell-based, human
# Text: as §3
# [13] = system: primary human vascular endothelial cells (ECs); experiment: Cell viability by annexin V/propidium iodide method and FACS, ECs; type: cell-based; conditions: 48 hours
# Protocol: as §5, §2
# [14] = system: intimal hyperplasia after balloon injury; conditions: in vivo; cited from earlier work
# [15] = 100 μl of 100 μM leoligin, 4 weeks
smiles,measurement,setting,value
"C/C=C(/C)C(=O)OC[C@H]1[C@@H](Cc2cc(OC)c(OC)c(OC)c2)CO[C@@H]1c1cc(OC)c(OC)c(OC)c1 [5,5′-dimethoxy-leoligin]",IC50,[1]; Homo sapiens,48.6 µM
C/C=C(/C)C(=O)OC[C@H]1[C@@H](Cc2ccc(O)c(OC)c2)CO[C@@H]1c1cc(OC)c(OC)c(OC)c1 [5-methoxy-leoligin],IC50,[1]; Homo sapiens,45.9 µM
C/C=C(/C)C(=O)OC[C@H]1[C@@H](Cc2ccc(OC)c(OC)c2)CO[C@@H]1c1cc(OC)c(OC)c(OC)c1 [5-methoxy-leoligin],IC50,[1],45.9 µM
"C=CCc1ccc(O)c(-c2ccc(O)c(CC=C)c2)c1 [Honokiol, honokiol]",cell cycle in SMCs,[2],arrest in the G1 phase of the cell cycle
"C=CCc1ccc(O)c(-c2cc(CC=C)ccc2O)c1 [Magnolol, magnolol]",cell death in SMCs,[3],induce cell death in SMCs
same,TNFalpha-mediated VCAM-1 expression,[4],inhibit TNFalpha-mediated VCAM-1 expression
"COc1cc(C[C@H]2CO[C@H](c3ccc(O)c(OC)c3)[C@H]2CO)ccc1O [lariciresinol, reference compound]",IC50,[1]; Homo sapiens,> 100 µM
C/C=C(/C)C(=O)OC[C@H]1[C@@H](Cc2ccc(OC)c(OC)c2)CO[C@@H]1c1ccc(OC)c(OC)c1 [leoligin],p27/KIP protein (Western blot),[5],complete change in the appearance of p27/KIP protein
same,cell death (apoptosis and necrosis) in SMCs,[6],only a marginal increase in cell death
same,proliferation of ECs,[7],inhibited the proliferation of ECs
same,cell cycle distribution (nuclear DNA content),[8],massive accumulation of cells in the G1-phase
same,endothelial layer (CD31 staining) of conduits,[9]; [15],intact
same,neointimal thickness of vein grafts,[9]; [15],significantly reduced neointimal thickness
same,p27/KIP staining of graft sections,[9]; four weeks after the application,stained positive for p27/KIP
same,animals with no blood flow due to thromboses after 4 weeks,[9]; of 7 animals per group (3 in control),2
same,intimal hyperplasia in vivo,"[9]; periadvential reservoir 100 μl of 100 μM leoligin in 0.9% NaCl, 4 weeks",potently inhibited intimal hyperplasia in vivo
same,protein synthesis in ECs,[10],does not block protein synthesis
same,intimal hyperplasia of saphenous veins in organ culture,"[11]; 5 μM leoligin, p=0.003",completely inhibited intimal hyperplasia
same,pre-existing intimal hyperplasia of saphenous veins in organ culture,"[11]; 50 μM leoligin, p<0.001",even reversed pre-existing intimal hyperplasia
same,TNFalpha-mediated surface expression of VCAM-1,[12],inhibited TNFalpha-mediated surface expression of VCAM-1
same,IC50,[1]; Homo sapiens,54.5 µM
same,"SMC proliferation (XTT assay, cell counting)",[1]; result in words,significant SMC proliferation inhibitory effect
same,toxic or cell death-inducing effect on ECs,[13],no toxic or cell death-inducing effect
COc1cc([C@@H]2c3cc4c(cc3[C@H](O)[C@H]3COC(=O)[C@@H]23)OCO4)cc(OC)c1OC [picropodophyllin],intimal hyperplasia after balloon injury,[14],inhibits intimal hyperplasia after balloon injury in vivo

# Source: patent publication US9669000B2, “Pharmaceutical compositions comprising lignans and their derivatives for treating hyperplastic diseases” (Universität Innsbruck, priority 2008, dated 2017)
